Data published in patent publication US20080306056A1, “PYRAZOLE-DERIVATIVES AS FACTOR Xa INHIBITORS” (SANOFI-AVENTIS DEUTSCHLAND GMBH, priority 2002, published 2008).

Biological target: T1, human factor Xa (Homo sapiens, UniProt P00742)
T1 construct: 25 μl human factor Xa (Enzyme Research Laboratories, Inc; South Bend, Ind.); purchased Enzyme Research Laboratories, Inc; South Bend, Ind
Experiment: Factor Xa assay (chromogenic, purified enzyme)
Assay type: biochemical
Settings: inhibition constant for factor Xa; chromogenic substrate S-2765 140 μM, enzyme 0.5 nM, 25° C., pH 7.8; Ki=IC50/{1+(substrate concentration/Km)}; read-out: Ki(FXa)
Text: The ability of the compound of formulae I, Ib and Ic to inhibit factor Xa or factor VIIa or other enzymes like thrombin, plasmin, or trypsin can be assessed by determining the concentration of the compound of the formulae I, Ib and Ic that inhibits enzyme activity by 50%, i.e. the IC50 value, which was related to the inhibition constant Ki. Purified enzymes were used in chromogenic assays. The concentration of inhibitor that causes a 50% decrease in the rate of substrate hydrolysis was determined by linear regression after plotting the relative rates of hydrolysis (compared to the uninhibited control) versus the log of the concentration of the compound of formulae I, Ib and Ic. For calculating the inhibition constant Ki, the IC50 value was corrected for competition with substrate using the formula wherein Km is the Michaelis-Menten constant (Chen and Prusoff, Biochem.
Ki=IC50/{1+(substrate concentration/Km)}
Pharmacol. 22 (1973) 3099-3108; I. H. Segal, Enzyme Kinetics, 1975, John Wiley & Sons, New York, 100-125; which were incorporated herein by reference).
The IC50 was determined by combining in appropriate wells of a Costar half-area microtiter plate 25 μl human factor Xa (Enzyme Research Laboratories, Inc.; South Bend, Ind.) in TBS-PEG; 40 μl 10% (v/v) DMSO in TBS-PEG (uninhibited control) or various concentrations of the compound to be tested diluted in 10% (v/v) DMSO in TBS-PEG; and substrate S-2765 (N(α)-benzyloxycarbonyl-D-Arg-Gly-L-Arg-p-nitroanilide; Kabi Pharmacia, Inc.; Franklin, Ohio) in TBS-PEG.
The assay was performed by pre-incubating the compound of formulae I, Ib and Ic plus enzyme for 10 min. Then the assay was initiated by adding substrate to obtain a final volume of 100 μl. The initial velocity of chromogenic substrate hydrolysis was measured by the change in absorbance at 405 nm using a Bio-tek Instruments kinetic plate reader (Ceres UV900HDi) at 25° C. during the linear portion of the time course (usually 1.5 min after addition of substrate). The enzyme concentration was 0.5 nM and substrate concentration was 140 μM.
The inhibitory activity towards factor VIIa/tissue factor activity was determined using a chromogenic assay essentially as described previously (J. A. Ostrem et al., Biochemistry 37 (1998) 1053-1059 which was incorporated herein by reference). Kinetic assays were conducted at 25° C. in half-area microtiter plates (Costar Corp., Cambridge, Mass.) using a kinetic plate reader (Molecular Devices Spectramax 250). A typical assay consisted of 25 μl human factor VIIa and TF (5 nM and 10 nM, respective final concentration) combined with 40 μl of inhibitor dilutions in 10% DMSO/TBS-PEG buffer (50 mM Tris, 15 mM NaCl, 5 mM CaCl2, 0.05% PEG 8000, pH 8.15). Following a 15 minute preincubation period, the assay was initiated by the addition of 35 μl of the chromogenic substrate S-2288 (D-Ile-Pro-Arg-p-nitroanilide, Pharmacia Hepar Inc., 500 μM final concentration).

T1 sequence (P00742 235-488 limits assumed): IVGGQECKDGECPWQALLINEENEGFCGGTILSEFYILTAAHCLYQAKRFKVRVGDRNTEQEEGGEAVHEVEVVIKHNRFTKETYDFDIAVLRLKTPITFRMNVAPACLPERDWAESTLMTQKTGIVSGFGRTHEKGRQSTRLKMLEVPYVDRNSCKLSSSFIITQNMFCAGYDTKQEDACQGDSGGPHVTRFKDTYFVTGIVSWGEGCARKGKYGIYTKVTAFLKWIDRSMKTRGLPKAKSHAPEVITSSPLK
T1 sequence (P00742 41-179 partner limits assumed): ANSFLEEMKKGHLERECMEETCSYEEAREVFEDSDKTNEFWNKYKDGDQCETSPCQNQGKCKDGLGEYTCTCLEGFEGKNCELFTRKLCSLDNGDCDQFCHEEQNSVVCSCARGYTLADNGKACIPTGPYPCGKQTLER

Row | Compound | Ki
1 | COC[C@H]1CC[C@H](COC)N1C(=O)c1cc(C(=O)NC2CCN(C(C)C)CC2)n(Cc2cc(-c3ccc(Cl)s3)on2)n1 [Example 67, 5-(2R,5R,2,5-Bis-methoxymethyl-pyrrolidine-1-carbonyl)-2-[5-(5-chloro-thiophen-2-yl)-isoxazol-3-ylmethyl]-2H-pyrazole-3-carboxylic acid (1-isopropyl-piperidin-4-yl)-amide] | 0.42 µM
2 | CC(C)N1CCC(NC(=O)c2cc(C(=O)NCCN3CCNC3=O)nn2Cc2cc(-c3ccc(Cl)s3)on2)CC1 [Example 73, 1-[5-(5-Chloro-thiophen-2-yl)-isoxazol-3-ylmethyl]-1H-pyrazole-3,5-dicarboxylic acid 5-[(1-isopropyl-piperidin-4-yl)-amide] 3-{[2-(2-oxo-imidazolidin-1-yl)-ethyl]-amide}] | 0.083 µM
3 | Cc1cc(C(=O)NC2CCN(C(C)C)CC2)n(Cc2cc(-c3ccc(Cl)s3)on2)n1 [Example 3, 2-[5-(5-Chloro-thiophen-2-yl)-isoxazol-3-ylmethyl]-5-methyl-2H-pyrazole-3-carboxylic acid (1-isopropyl-piperidin-4-yl)-amide] | 0.112 µM
4 | O=C(NCC1CCN(c2ccncc2)CC1)c1cc(-c2cccs2)nn1Cc1cc(-c2ccc(Cl)s2)on1 [Example 16, 2-[5-(5-Chloro-thiophen-2-yl)-isoxazol-3-ylmethyl]-5-thiophen-2-yl-2H-pyrazole-3-carboxylic acid (3,4,5,6-tetrahydro-2H-[1,4′]bipyridinyl-4-ylmethyl)-amide] | 0.165 µM
5 | CC(C)N1CCC(CNC(=O)c2cc(-c3cccs3)nn2Cc2cc(-c3ccc(Cl)s3)on2)CC1 [Example 17, 2-[5-(5-Chloro-thiophen-2-yl)-isoxazol-3-ylmethyl]-5-thiophen-2-yl-2H-pyrazole-3-carboxylic acid (1-isopropyl-piperidin-4-ylmethyl)-amide] | 0.155 µM
6 | CC(C)N1CCC(NC(=O)c2cc(C(=O)NCCS(N)(=O)=O)n(Cc3cc(-c4ccc(Cl)s4)on3)n2)CC1 [Example 87, 1-[5-(5-Chloro-thiophen-2-yl)-isoxazol-3-ylmethyl]-1H-pyrazole-3,5-dicarboxylic acid 3-[(1-isopropyl-piperidin-4-yl)-amide] 5-[(2-sulfamoyl-ethyl)-amide]] | 0.181 µM
7 | CC(C)N1CCC(NC(=O)c2cc(C(=O)NC[Si](C)(C)C)nn2Cc2cc(-c3ccc(Cl)s3)on2)CC1 [Example 80, 1-[5-(5-Chloro-thiophen-2-yl)-isoxazol-3-ylmethyl]-1H-pyrazole-3,5-dicarboxylic acid 5-[(1-isopropyl-piperidin-4-yl)-amide] 3-trimethylsilanylmethyl-amide] | 0.149 µM
8 | CC(C)N1CCC(NC(=O)c2cc(C(=O)NCCO)nn2Cc2cc(-c3ccc(Cl)s3)on2)CC1 [Example 27, 1-[5-(5-Chloro-thiophen-2-yl)-isoxazol-3-ylmethyl]-1H-pyrazole-3,5-dicarboxylic acid 3-[(2-hydroxy-ethyl)-amide] 5-[(1-isopropyl-piperidin-4-yl)-amide]] | 0.088 µM
9 | CC(C)N1CCC(NC(=O)c2nn(Cc3cc(-c4ccc(Cl)s4)on3)c(-c3cccs3)c2C#N)CC1 [Example 13, 1-[5-(5-Chloro-thiophen-2-yl)-isoxazol-3-ylmethyl]-4-cyano-5-thiophen-2-yl-1H-pyrazole-3-carboxylic acid (1-isopropyl-piperidin-4-yl)-amide] | 0.039 µM
10 | CC(C)N1CCC(NC(=O)c2c(C#N)c(-c3cccs3)nn2Cc2cc(-c3ccc(Cl)s3)on2)CC1 [Example 12, 2-[5-(5-Chloro-thiophen-2-yl)-isoxazol-3-ylmethyl]-4-cyano-5-thiophen-2-yl-2H-pyrazole-3-carboxylic acid (1-isopropyl-piperidin-4-yl)-amide] | 0.014 µM
11 | CC(C)N1CCC(NC(=O)c2cc(-c3ccc(Cl)s3)nn2Cc2cc(-c3ccc(Cl)s3)on2)CC1 [Example 5, 5-(5-Chloro-thiophen-2-yl)-2-[5-(5-chloro-thiophen-2-yl)-isoxazol-3-ylmethyl]-2H-pyrazole-3-carboxylic acid (1-isopropyl-piperidin-4-yl)-amide] | 0.3 µM

Other lines, results leading:

Row | Ki | Compound
12 | 0.185 µM | CC(C)N1CCC(NC(=O)c2cc(C(=O)O)n(Cc3cc(-c4ccc(Cl)s4)on3)n2)CC1 [Example 85, 2-[5-(5-Chloro-thiophen-2-yl)-isoxazol-3-ylmethyl]-5-(1-isopropyl-piperidin-4-ylcarbamoyl)-2H-pyrazole-3-carboxylic acid]
13 | 0.228 µM | CCOC(=O)C(NC(=O)c1cc(C(=O)NC2CCN(C(C)C)CC2)n(Cc2cc(-c3ccc(Cl)s3)on2)n1)C(C)C (centres unmarked) [Example 97, 2-{[1-[5-(5-Chloro-thiophen-2-yl)-isoxazol-3-ylmethyl]-5-(1-isopropyl-piperidin-4-ylcarbamoyl)-1H-pyrazole-3-carbonyl]-amino}-3-methyl-butyric acid ethyl ester]
14 | 0.073 µM | COC(=O)c1cc(C(=O)NC2CCN(C(C)C)CC2)n(Cc2cc(-c3ccc(Cl)s3)on2)n1 [Example 20, 1-[5-(5-Chloro-thiophen-2-yl)-isoxazol-3-ylmethyl]-5-(1-isopropyl-piperidin-4-ylcarbamoyl)-1H-pyrazole-3-carboxylic acid methyl ester]
15 | 0.01 µM | COC(=O)c1cc(C(=O)NC2CCN(C(C)C)CC2)n(CC(=O)Nc2ccc(Cl)cn2)n1 [Example 50, 1-[(5-Chloro-pyridin-2-ylcarbamoyl)-methyl]-5-(1-isopropyl-piperidin-4-ylcarbamoyl)-1H-pyrazole-3-carboxylic acid methyl ester]
16 | 0.018 µM | CC(C)N1CCC(NC(=O)c2cc(C(=O)OCC3CC3)nn2CC(=O)Nc2ccc(Cl)cn2)CC1 [Example 96, 1-[(5-Chloro-pyridin-2-ylcarbamoyl)-methyl]-5-(1-isopropyl-piperidin-4-ylcarbamoyl)-1H-pyrazole-3-carboxylic acid cyclopropylmethyl ester]
17 | 0.025 µM | COCCOCCOc1cc(C(=O)NC2CCN(C(C)C)CC2)n(CC(=O)Nc2ccc(Cl)cn2)n1 [Example 104, 2-[(5-Chloro-pyridin-2-ylcarbamoyl)-methyl]-5-[2-(2-methoxy-ethoxy)-ethoxy]-2H-pyrazole-3-carboxylic acid (1-isopropyl-piperidin-4-yl)-amide]
18 | 0.152 µM | COC[C@@H]1CCCN1C(=O)c1cc(C(=O)NC2CCN(C(C)C)CC2)n(Cc2cc(-c3ccc(Cl)s3)on2)n1 [Example 66, 2-[5-(5-Chloro-thiophen-2-yl)-isoxazol-3-ylmethyl]-5-(2S,2-methoxymethyl-pyrrolidine-1-carbonyl)-2H-pyrazole-3-carboxylic acid (1-isopropyl-piperidin-4-yl)-amide]
19 | 0.072 µM | CC(C)N1CCC(NC(=O)c2cc(C(=O)N3CCCC3C(F)(F)F)nn2Cc2cc(-c3ccc(Cl)s3)on2)CC1 (centres unmarked) [Example 43, 2-[5-(5-Chloro-thiophen-2-yl)-isoxazol-3-ylmethyl]-5-(2-trifluoromethyl-pyrrolidine-1-carbonyl)-2H-pyrazole-3-carboxylic acid (1-isopropyl-piperidin-4-yl)-amide]
20 | 0.082 µM | CC(C)N1CCC(NC(=O)c2cc(C(=O)N(C)CC(=O)O)nn2Cc2cc(-c3ccc(Cl)s3)on2)CC1 [Example 33, {[1-[5-(5-Chloro-thiophen-2-yl)-isoxazol-3-ylmethyl]-5-(1-isopropyl-piperidin-4-ylcarbamoyl)-1H-pyrazole-3-carbonyl]-methyl-amino}-acetic acid]
